Some test systems named below: Hs-578T; PC-3; IGROV-1; SNB-75; SK-MEL-28; K562; NCI-H522; RXF 393; HL-60; UO-31; MDA-MB-231; NCI/ADR-RES; KM12; HOP-92; MDA-N; A549; MOLT-4; 786-0; BT-549; SF-539.
What all share (test): NCI anticancer screen, dose series, 48 h

“And” between values parts separate entries of the source, which are not always exact repeats. Equal entries are not always repeated.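 Compound exposure: 48 hours, 5 concentrations, 96-well plates. GI50 = concentration required for 50% inhibition of growth.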 The source made the active and inactive calls. No stated cut-off is given here; in the data, active = GI50 up to about 1.1 µM and inactive = higher.

This is an account of results in ChEMBL document CHEMBL1201862, “PubChem BioAssay data set” (2004).

On to `CC(C)[C@H](NC(=O)[C@H](N)Cc1ccc(N(CCCl)CCCl)cc1)C(=O)O`, for which the GI50 in the assay with Hs-578T, in the assay on PC-3, in the assay on IGROV-1, in the assay with SNB-75, in the assay on SK-MEL-28 and in the assay on K562 was > 100 µM (inactive) throughout. For the same compound, the GI50 with NCI-H522, with RXF 393, with HL-60, with UO-31, in the assay on MDA-MB-231 and in the assay with NCI/ADR-RES was > 100 µM (inactive) throughout. In addition, the GI50 in the assay on KM12 was > 100 µM (inactive); with HOP-92, 9.82 µM (inactive); with MDA-N it was > 100 µM (inactive); in the assay on A549, > 100 µM (inactive); in the assay on MOLT-4, 29.3 µM (inactive); in the assay with 786-0, > 100 µM (inactive). Besides, in the assay on BT-549, the GI50 is > 100 µM (inactive).

For `Cn1/c(=N\S(=O)(=O)c2ccccc2)n(S(=O)(=O)c2ccccc2)c2ccccc21`, the GI50 in the assay with Hs-578T is 41.8 µM (inactive); in the assay with PC-3, 29.5 µM (inactive); with IGROV-1, > 100 µM (inactive); in the assay on SNB-75 it was 54.7 µM (inactive); in the assay on SK-MEL-28, > 100 µM (inactive); in the assay on K562, 39.9 µM (inactive). For the same compound, the GI50 in the assay on NCI-H522 was 50.4 µM (inactive); in the assay on RXF 393, 95.5 µM (inactive); in the assay with HL-60 it was 0.598 µM (active); in the assay with UO-31 it was 34.7 µM (inactive); in the assay on MDA-MB-231 it was > 100 µM (inactive); in the assay with NCI/ADR-RES, 38.6 µM (inactive). For the same compound, the GI50 with KM12 was 26.2 µM (inactive); in the assay with HOP-92, > 10 µM (inactive); in the assay with MDA-N it was 61.5 µM (inactive); in the assay on A549, 47.5 µM (inactive); in the assay on MOLT-4, 42.9 µM (inactive); with 786-0, 88.5 µM (inactive). Further, in the assay with BT-549, the GI50 is > 100 µM (inactive).

Take `O=C(/C=C/c1ccsc1)c1cccs1`: the GI50 with Hs-578T was 40.3 µM (inactive); in the assay with PC-3 it was 69.5 µM (inactive); with IGROV-1, 53.2 µM (inactive); in the assay on SNB-75, > 100 µM (inactive); with SK-MEL-28, 20.9 µM (inactive); in the assay with K562, 28.2 µM (inactive). For the same compound, the GI50 with NCI-H522 was 18.7 µM (inactive); with RXF 393, 18.9 µM (inactive); with SF-539 it was 32.9 µM (inactive); with UO-31 it was 18.5 µM (inactive); in the assay with MDA-MB-231 it was 36 µM (inactive); in the assay on NCI/ADR-RES, 20.7 µM (inactive). Also, the GI50 was 19.4 µM (inactive) in the assay with KM12; 29.4 µM (inactive) in the assay with HOP-92; 35 µM (inactive) in the assay with MDA-N; 33 µM (inactive) in the assay with A549; > 10 µM (inactive) in the assay on MOLT-4; 49.3 µM (inactive) in the assay with 786-0. In addition, the GI50 in the assay with BT-549 is 20.8 µM (inactive).

Turning to `O=C(C[C@@H]1CCCN2CCCC[C@H]12)N1c2ccccc2Sc2ccc(Cl)cc21`, the GI50 was 17.1 µM (inactive) with Hs-578T; 13.2 µM (inactive) in the assay on PC-3; 12.6 µM (inactive) in the assay with IGROV-1; 13.8 µM (inactive) in the assay with SNB-75; 13.2 µM (inactive) in the assay with SK-MEL-28; 13.8 µM (inactive) in the assay on K562. Besides, the GI50 with NCI-H522 is 13.5 µM (inactive); with RXF 393 it was 13.6 µM (inactive); with HL-60, 14.5 µM (inactive); with SF-539, 16.6 µM (inactive); with UO-31, 12.9 µM (inactive); in the assay on MDA-MB-231, 14.7 µM (inactive). For the same compound, the GI50 in the assay on NCI/ADR-RES is 14.8 µM (inactive); in the assay with KM12 it was 13.3 µM (inactive); with MDA-N it was 16 µM (inactive); in the assay with A549 it was 16.6 µM (inactive); in the assay with MOLT-4 it was 11.8 µM (inactive); with 786-0, 11.1 µM (inactive). Besides, in the assay with BT-549, the GI50 was 14.7 µM (inactive).

For the compound `C[C@]12c3c4cc(NC(=O)C(=O)NCc5ccc(-c6ccccn6)nc5)cc3Oc3cc(NC(=O)C(=O)NCc5ccc(-c6ccccn6)nc5)cc(c31)OC1C=C(NC(=O)C(=O)NCc3ccc(-c5ccccn5)nc3)C=C(O4)C12` (stereo not given in full), the GI50 was > 100 µM (inactive) in the assay with Hs-578T; 61.5 µM (inactive) with PC-3; 16.9 µM (inactive) in the assay on IGROV-1; 16.4 µM (inactive) in the assay on SNB-75; 95.1 µM (inactive) with SK-MEL-28; 84.9 µM (inactive) in the assay on K562. Also, the GI50 in the assay with NCI-H522 was 66.5 µM (inactive); in the assay on RXF 393, > 100 µM (inactive); in the assay with HL-60 it was 14.6 µM (inactive); with SF-539, 29.3 µM (inactive); in the assay on UO-31, 22.3 µM (inactive); in the assay on MDA-MB-231 it was 9.59 µM (inactive). For the same compound, the GI50 with NCI/ADR-RES is 49.7 µM (inactive); with KM12 it was 16.3 µM (inactive); with MDA-N, 34 µM (inactive); in the assay with A549, 86.5 µM (inactive); in the assay on MOLT-4, 12.6 µM (inactive); with 786-0 it was 18.1 µM (inactive). In the assay on BT-549, the GI50 is > 100 µM (inactive).

Regarding `COc1ccc2nc3cccc([N+](=O)[O-])c3c(NCCN(C)C)c2c1`, the GI50 is 0.242 µM (active) with Hs-578T; 0.108 µM (active) in the assay with PC-3; 0.167 µM (active) in the assay with IGROV-1; 0.159 µM (active) in the assay on SNB-75; 0.161 µM (active) with SK-MEL-28; 0.0292 µM (active) in the assay on K562. Further, the GI50 with NCI-H522 is 0.0209 µM (active); in the assay with RXF 393, 0.0851 µM (active); in the assay with SF-539, 0.147 µM (active); with UO-31 it was 0.176 µM (active); in the assay on MDA-MB-231, 0.156 µM (active); with NCI/ADR-RES it was 0.138 µM (active). Also, the GI50 is 0.158 µM (active) with KM12; 0.057 µM (active) with HOP-92; 0.124 µM (active) in the assay on MDA-N; 0.0515 µM (active) in the assay with A549; 0.103 µM (active) in the assay on MOLT-4; 0.0902 µM (active) in the assay with 786-0. For the same compound, the GI50 in the assay on BT-549 is 0.0369 µM (active).

Consider `Cn1c(=O)c2c(ncn2CCNC(CO)C(O)c2ccc([N+](=O)[O-])cc2)n(C)c1=O` (stereo not given), for which the GI50 in the assay with Hs-578T is > 10 µM (inactive); with PC-3, > 100 µM (inactive); in the assay on IGROV-1, > 10 µM (inactive); in the assay with SK-MEL-28, > 100 µM (inactive); in the assay with K562, > 100 µM (inactive); with NCI-H522 it was > 100 µM (inactive). Moreover, the GI50 in the assay on HL-60, with SF-539, in the assay on UO-31, in the assay on MDA-MB-231, in the assay with NCI/ADR-RES and in the assay on KM12 was > 100 µM (inactive) throughout. In addition, the GI50 in the assay on HOP-92, in the assay on MDA-N, in the assay on A549, in the assay on MOLT-4, in the assay with 786-0 and in the assay with BT-549 was > 100 µM (inactive) each time.

Turning to `COC1=C(OC)C(=O)C(Cc2c(Cl)nc3sc(C)cn23)=C(C)C1=O`, the GI50 in the assay on Hs-578T was 19.7 µM (inactive); with PC-3 it was 16 µM (inactive); with IGROV-1, 17.8 µM (inactive); in the assay on SK-MEL-28, 17.9 µM (inactive); in the assay with K562 it was 11.9 µM (inactive); in the assay on NCI-H522, 13.4 µM (inactive). The GI50 in the assay on RXF 393 was 20.3 µM (inactive); in the assay with SF-539, 19 µM (inactive); with UO-31 it was 17.1 µM (inactive); in the assay on MDA-MB-231, 12.2 µM (inactive); in the assay with NCI/ADR-RES it was 14.6 µM (inactive); with KM12, 13.3 µM (inactive). Moreover, the GI50 with MDA-N is 15.8 µM (inactive); in the assay on A549, 17.2 µM (inactive); with MOLT-4 it was 1.29 µM (inactive); with 786-0, 19.9 µM (inactive); in the assay on BT-549, 18 µM (inactive).

Consider `CCc1n[nH]c(=O)n1NC(=O)CCCC(=O)O`, for which the GI50 with Hs-578T, with PC-3, in the assay with IGROV-1, in the assay on K562, with NCI-H522 and in the assay on RXF 393 was > 100 µM (inactive) in each case. Besides, the GI50 in the assay on SF-539, with UO-31, in the assay on MDA-MB-231, with NCI/ADR-RES, in the assay on KM12 and in the assay with HOP-92 was > 100 µM (inactive) each time. Further, the GI50 in the assay with MDA-N, in the assay on A549, in the assay with MOLT-4, in the assay on 786-0 and with BT-549 was > 100 µM (inactive) in each case.

On to `CC1CCC2(C(=O)O)CCC3(C)C(=CCC4C5(C)CCC(O)C(C)(C)C5CCC43C)C2C1C` (stereo not given), for which the GI50 is 8.71 µM (inactive) with Hs-578T; 15.8 µM (inactive) with PC-3; 13.4 µM (inactive) and 18.2 µM (inactive) in the assay on IGROV-1; 3.84 µM (inactive) with K562; 6.12 µM (inactive) and 11.4 µM (inactive) in the assay on RXF 393; 3.05 µM (inactive) and 2.64 µM (inactive) in the assay with HL-60. The GI50 with SF-539 is 13.4 µM (inactive) and 11 µM (inactive); with UO-31, 6.75 µM (inactive) and 4.07 µM (inactive); in the assay with MDA-MB-231, 12.5 µM (inactive); in the assay on NCI/ADR-RES, 14.7 µM (inactive) and 11.2 µM (inactive); in the assay with KM12 it was 6.62 µM (inactive) and 9.29 µM (inactive); in the assay on HOP-92, 18.4 µM (inactive) and 11.9 µM (inactive). The figures for the GI50 with MDA-N, with 786-0 and with BT-549 were 14.6 µM (inactive), 4.63 µM (inactive) and 19 µM (inactive), respectively.

As for `[N-]=[N+]=NCC1OCC(O)C(OCc2ccccc2)C1OCc1ccccc1` (stereo not given), the GI50 in the assay with Hs-578T was > 100 µM (inactive); in the assay on PC-3, 73.1 µM (inactive); in the assay with IGROV-1 it was 79.3 µM (inactive); with SNB-75 it was 20.5 µM (inactive); in the assay with SK-MEL-28, > 100 µM (inactive); with K562, 51.4 µM (inactive). For the same compound, the GI50 is 70 µM (inactive) in the assay with NCI-H522; 70.6 µM (inactive) in the assay on HL-60; > 100 µM (inactive) in the assay with SF-539; 65.2 µM (inactive) in the assay on UO-31; > 100 µM (inactive) in the assay with MDA-MB-231; > 100 µM (inactive) with NCI/ADR-RES. The GI50 with KM12 was 41 µM (inactive); in the assay on HOP-92 it was 65.3 µM (inactive); in the assay with MDA-N it was > 100 µM (inactive); with A549, 70 µM (inactive); with MOLT-4, 37.1 µM (inactive); with 786-0 it was 81.5 µM (inactive). In the assay on BT-549, the GI50 was 28.9 µM (inactive).
